Usually EC50 stands for the concentration at which the effect is half-maximal.

The record followed here is patent US20210363213A1, “GLUCAGON-GLP-1-GIP TRIPLE AGONIST COMPOUNDS” (priority 2013, published 2021).

SMILES strings stand for the structures. Peptide text beside a SMILES is read from it.

The target of one experiment is T1, human GIP R (Homo sapiens, UniProt P48546).
T1 construct: expressed in transfected cells
T1 sequence (P48546 22-466): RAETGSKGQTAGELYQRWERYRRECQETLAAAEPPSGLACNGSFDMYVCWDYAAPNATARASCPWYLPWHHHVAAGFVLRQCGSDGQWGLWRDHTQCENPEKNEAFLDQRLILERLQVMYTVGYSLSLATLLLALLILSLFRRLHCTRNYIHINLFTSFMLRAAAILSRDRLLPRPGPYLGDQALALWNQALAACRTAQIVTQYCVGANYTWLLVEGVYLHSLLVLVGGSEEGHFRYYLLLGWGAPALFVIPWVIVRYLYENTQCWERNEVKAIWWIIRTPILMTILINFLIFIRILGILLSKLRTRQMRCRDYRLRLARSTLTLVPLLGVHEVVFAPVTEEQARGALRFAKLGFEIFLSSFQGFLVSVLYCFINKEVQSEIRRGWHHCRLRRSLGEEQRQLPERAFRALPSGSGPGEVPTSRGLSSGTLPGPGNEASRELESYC
Nature of the experiment: Human GIP receptor (GIP-R) activity assay, cAMP induction (AlphaScreen) in HEK293 cells.
Conditions: not given
It counts as cell-based. Background: Alpha assays give light when donor and acceptor beads are brought close together.
`CC[C@H](C)[C@H](NC(=O)[C@H](CO)NC(=O)[C@H](Cc1ccc(O)cc1)NC(=O)[C@H](CC(=O)O)NC(=O)[C@H](CO)NC(=O)[C@@H](NC(=O)[C@H](Cc1ccccc1)NC(=O)[C@@H](NC(=O)CNC(=O)[C@H](CCC(N)=O)NC(=O)C(C)(C)NC(=O)[C@@H](N)Cc1ccc(O)cc1)[C@@H](C)O)[C@@H](C)O)C(=O)N[C@@H](Cc1ccc(O)cc1)C(=O)N[C@@H](CC(C)C)C(=O)N[C@@H](CC(=O)O)C(=O)N[C@@H](CO)C(=O)N[C@@H](CCCCN)C(=O)N[C@@H](C)C(=O)N[C@@H](C)C(=O)N[C@@H](Cc1c[nH]cn1)C(=O)N[C@@H](CC(=O)O)C(=O)N[C@@H](Cc1ccccc1)C(=O)N[C@H](C(=O)N[C@@H](CC(N)=O)C(=O)N[C@@H](Cc1c[nH]c2ccccc12)C(=O)N[C@@H](CC(C)C)C(=O)N[C@@H](CC(C)C)C(=O)N[C@@H](CO)C(=O)N[C@@H](C)C(N)=O)C(C)C` [Compound 11] (HELM PEPTIDE1{Y.[Aib].Q.G.T.F.T.S.D.Y.S.I.Y.L.D.S.K.A.A.H.D.F.V.N.W.L.L.S.A.[am]}$$$$V2.0): the EC50 came to 0.25 nM.

The compound `CC(C)C[C@H](NC(=O)[C@H](C)NC(=O)[C@H](CCCCN)NC(=O)[C@H](CO)NC(=O)[C@H](Cc1ccc(O)cc1)NC(=O)[C@H](CC(=O)O)NC(=O)[C@H](CO)NC(=O)[C@@H](NC(=O)[C@H](Cc1ccccc1)NC(=O)[C@@H](NC(=O)CNC(=O)[C@H](CCC(N)=O)NC(=O)C(C)(C)NC(=O)[C@@H](N)Cc1ccc(O)cc1)[C@@H](C)O)[C@@H](C)O)C(=O)N[C@@H](CC(=O)O)C(=O)N[C@@H](CO)C(=O)N[C@@H](CCCCN)C(=O)N[C@@H](C)C(=O)N[C@@H](C)C(=O)N[C@@H](Cc1c[nH]cn1)C(=O)N[C@@H](CC(=O)O)C(=O)N[C@@H](Cc1ccccc1)C(=O)N[C@H](C(=O)N[C@@H](CCC(=O)O)C(=O)N[C@@H](Cc1c[nH]c2ccccc12)C(=O)N[C@@H](CC(C)C)C(=O)N[C@@H](CC(C)C)C(=O)N[C@@H](CO)C(=O)N[C@@H](C)C(N)=O)C(C)C` [Compound 7] (HELM PEPTIDE1{Y.[Aib].Q.G.T.F.T.S.D.Y.S.K.A.L.D.S.K.A.A.H.D.F.V.E.W.L.L.S.A.[am]}$$$$V2.0) displayed a concentration giving a half-maximal response (EC50) of 0.5 nM.

On to `CC[C@H](C)[C@H](NC(=O)[C@H](CO)NC(=O)[C@H](Cc1ccc(O)cc1)NC(=O)[C@H](CC(=O)O)NC(=O)[C@H](CO)NC(=O)[C@@H](NC(=O)[C@H](Cc1ccccc1)NC(=O)[C@@H](NC(=O)CNC(=O)[C@H](CCC(N)=O)NC(=O)C(C)(C)NC(=O)[C@@H](N)Cc1ccc(O)cc1)[C@@H](C)O)[C@@H](C)O)C(=O)N[C@@H](Cc1ccc(O)cc1)C(=O)N[C@@H](CC(C)C)C(=O)N[C@@H](CC(=O)O)C(=O)N[C@@H](CO)C(=O)N[C@@H](CCCCN)C(=O)N[C@@H](C)C(=O)N[C@@H](C)C(=O)N[C@@H](CCCCN)C(=O)N[C@@H](CC(=O)O)C(=O)N[C@@H](Cc1ccccc1)C(=O)N[C@H](C(=O)N[C@@H](CCC(=O)O)C(=O)N[C@@H](Cc1c[nH]c2ccccc12)C(=O)N[C@@H](CC(C)C)C(=O)N[C@@H](CC(C)C)C(=O)N[C@@H](CO)C(=O)N[C@@H](C)C(N)=O)C(C)C` [Compound 10] (HELM PEPTIDE1{Y.[Aib].Q.G.T.F.T.S.D.Y.S.I.Y.L.D.S.K.A.A.K.D.F.V.E.W.L.L.S.A.[am]}$$$$V2.0), for which a half-maximal response (EC50) required 0.2 nM.

The experiment is the same for the next values; noted with them: Table 2b (most comprehensive data); average EC50; cAMP in HEK293 cells expressing human GIP R; read-out: GIP R (EC50 in nM).
Consider `CCCCCCCCCCCCCCCC(=O)N[C@@H](CCC(=O)NCCCC[C@H](NC(=O)[C@H](CO)NC(=O)[C@H](CC(=O)O)NC(=O)[C@H](CC(C)C)NC(=O)[C@H](Cc1ccc(O)cc1)NC(=O)[C@@H](NC(=O)[C@H](CO)NC(=O)[C@H](Cc1ccc(O)cc1)NC(=O)[C@H](CC(=O)O)NC(=O)[C@H](CO)NC(=O)[C@@H](NC(=O)[C@H](Cc1ccccc1)NC(=O)[C@@H](NC(=O)CNC(=O)[C@H](CCC(N)=O)NC(=O)C(C)(C)NC(=O)[C@@H](N)Cc1ccc(O)cc1)[C@@H](C)O)[C@@H](C)O)[C@@H](C)CC)C(=O)N[C@@H](C)C(=O)N[C@@H](C)C(=O)N[C@@H](Cc1c[nH]cn1)C(=O)N[C@@H](CC(=O)O)C(=O)N[C@@H](Cc1ccccc1)C(=O)N[C@H](C(=O)N[C@@H](CCC(=O)O)C(=O)N[C@@H](Cc1c[nH]c2ccccc12)C(=O)N[C@@H](CC(C)C)C(=O)N[C@@H](CC(C)C)C(=O)N[C@@H](CCCNC(=N)N)C(=O)N[C@@H](C)C(N)=O)C(C)C)C(=O)O` [Compound 27] (HELM PEPTIDE1{Y.[Aib].Q.G.T.F.T.S.D.Y.S.I.Y.L.D.S.K.A.A.H.D.F.V.E.W.L.L.R.A.[am]}|PEPTIDE2{[CCCCCCCCCCCCCCCC(=O)[*:2]].[gGlu]}$PEPTIDE1,PEPTIDE2,17:R3-2:R2$$$V2.0), for which the EC50 is 0.099 nM.

Regarding `CCCCCCCCCCCCCCCC(=O)N[C@@H](CCC(=O)NCCCC[C@H](NC(=O)[C@H](CO)NC(=O)[C@H](CC(=O)O)NC(=O)[C@H](CC(C)C)NC(=O)[C@H](Cc1ccc(O)cc1)NC(=O)[C@@H](NC(=O)[C@H](CO)NC(=O)[C@H](Cc1ccc(O)cc1)NC(=O)[C@H](CC(=O)O)NC(=O)[C@H](CO)NC(=O)[C@@H](NC(=O)[C@H](Cc1ccccc1)NC(=O)[C@@H](NC(=O)CNC(=O)[C@H](CCC(N)=O)NC(=O)C(C)(C)NC(=O)[C@@H](N)Cc1ccc(O)cc1)[C@@H](C)O)[C@@H](C)O)[C@@H](C)CC)C(=O)N[C@@H](C)C(=O)N[C@@H](C)C(=O)N[C@@H](Cc1c[nH]cn1)C(=O)N[C@@H](CC(=O)O)C(=O)N[C@@H](Cc1ccccc1)C(=O)N[C@H](C(=O)N[C@@H](CCC(=O)O)C(=O)N[C@@H](Cc1c[nH]c2ccccc12)C(=O)N[C@@H](CC(C)C)C(=O)N[C@@H](CC(C)C)C(=O)N[C@@H](CO)C(=O)N[C@@H](C)C(=O)NCC(=O)N1CCC[C@H]1C(=O)N[C@@H](CO)C(=O)N[C@@H](CO)C(=O)NCC(=O)N[C@@H](C)C(=O)N1CCC[C@H]1C(=O)N1CCC[C@H]1C(=O)N1CCC[C@H]1C(=O)N[C@@H](CO)C(N)=O)C(C)C)C(=O)O` [Compound 29] (HELM PEPTIDE1{Y.[Aib].Q.G.T.F.T.S.D.Y.S.I.Y.L.D.S.K.A.A.H.D.F.V.E.W.L.L.S.A.G.P.S.S.G.A.P.P.P.S.[am]}|PEPTIDE2{[CCCCCCCCCCCCCCCC(=O)[*:2]].[gGlu]}$PEPTIDE1,PEPTIDE2,17:R3-2:R2$$$V2.0), the EC50 was found to be 0.064 nM.

Take `CCCCCCCCCCCCCCCC(=O)N[C@@H](CCC(=O)NCCCC[C@H](NC(=O)[C@H](CCCCN)NC(=O)[C@H](CCC(=O)O)NC(=O)[C@H](CC(C)C)NC(=O)[C@H](Cc1ccc(O)cc1)NC(=O)[C@@H](NC(=O)[C@H](CO)NC(=O)[C@H](Cc1ccc(O)cc1)NC(=O)[C@H](CC(=O)O)NC(=O)[C@H](CO)NC(=O)[C@@H](NC(=O)[C@H](Cc1ccccc1)NC(=O)[C@@H](NC(=O)CNC(=O)[C@H](CCC(N)=O)NC(=O)C(C)(C)NC(=O)[C@@H](N)Cc1ccc(O)cc1)[C@@H](C)O)[C@@H](C)O)[C@@H](C)CC)C(=O)N[C@@H](C)C(=O)N[C@@H](C)C(=O)N[C@@H](CCCCN)C(=O)N[C@@H](CCC(=O)O)C(=O)N[C@@H](Cc1ccccc1)C(=O)N[C@H](C(=O)N[C@@H](CCC(=O)O)C(=O)N[C@@H](Cc1c[nH]c2ccccc12)C(=O)N[C@@H](CC(C)C)C(=O)N[C@@H](CC(C)C)C(=O)N[C@@H](CO)C(=O)N[C@@H](C)C(=O)NCC(=O)N1CCC[C@H]1C(=O)N[C@@H](CO)C(=O)N[C@@H](CO)C(=O)NCC(=O)N[C@@H](C)C(=O)N1CCC[C@H]1C(=O)N1CCC[C@H]1C(=O)N1CCC[C@H]1C(=O)N[C@@H](CO)C(N)=O)C(C)C)C(=O)O` [Compound 32] (HELM PEPTIDE1{Y.[Aib].Q.G.T.F.T.S.D.Y.S.I.Y.L.E.K.K.A.A.K.E.F.V.E.W.L.L.S.A.G.P.S.S.G.A.P.P.P.S.[am]}|PEPTIDE2{[CCCCCCCCCCCCCCCC(=O)[*:2]].[gGlu]}$PEPTIDE1,PEPTIDE2,17:R3-2:R2$$$V2.0): the EC50 was 0.04 nM.

Regarding `CCCCCCCCCCCCCCCC(=O)N[C@@H](CCC(=O)NCCCC[C@H](NC(=O)[C@H](CO)NC(=O)[C@H](Cc1ccc(O)cc1)NC(=O)[C@H](CC(=O)O)NC(=O)[C@H](CO)NC(=O)[C@@H](NC(=O)[C@H](Cc1ccccc1)NC(=O)[C@@H](NC(=O)CNC(=O)[C@H](CCC(N)=O)NC(=O)C(C)(C)NC(=O)[C@@H](N)Cc1ccc(O)cc1)[C@@H](C)O)[C@@H](C)O)C(=O)N[C@@H](Cc1ccc(O)cc1)C(=O)N[C@@H](CC(C)C)C(=O)N[C@@H](CCC(=O)O)C(=O)N[C@@H](CCCCN)C(=O)N[C@@H](CCCCN)C(=O)N[C@@H](C)C(=O)N[C@@H](C)C(=O)N[C@@H](CCCCN)C(=O)N[C@@H](CCC(=O)O)C(=O)N[C@@H](Cc1ccccc1)C(=O)N[C@H](C(=O)N[C@@H](CCC(=O)O)C(=O)N[C@@H](Cc1c[nH]c2ccccc12)C(=O)N[C@@H](CC(C)C)C(=O)N[C@@H](CC(C)C)C(=O)N[C@@H](CO)C(=O)N[C@@H](C)C(N)=O)C(C)C)C(=O)O` [Compound 25] (HELM PEPTIDE1{Y.[Aib].Q.G.T.F.T.S.D.Y.S.K.Y.L.E.K.K.A.A.K.E.F.V.E.W.L.L.S.A.[am]}|PEPTIDE2{[CCCCCCCCCCCCCCCC(=O)[*:2]].[gGlu]}$PEPTIDE1,PEPTIDE2,12:R3-2:R2$$$V2.0), the EC50 is 0.19 nM.
